# Source: patent US8273777B2, “Glucokinase activators and methods of using same” (Bristol-Meyer Squibb Company, priority 2007, dated 2012)
# Experiments:
# [1] = molecular target: T1, human glucokinase (GK) (Homo sapiens, UniProt P35557); experiment: Glucokinase tandem enzymatic assay; type: biochemical; settings: 12 mM glucose; for Emax: expressed as % of basal activation, EC50 could not be calculated, read-out: Maximal activation (%) Human Glucokinase @ 12 mM Glucose; for EC50: EC50 = concentration to achieve 50% of full activation
# T1 construct: Full-length human hepatic GK (untagged) was expressed in BL21 STAR (DE3)pLysS cells; made in house; host or cells: E. coli BL21 STAR (DE3)pLysS (Invitrogen)
# T1 sequence (P35557 1-466 isoform P35557-2): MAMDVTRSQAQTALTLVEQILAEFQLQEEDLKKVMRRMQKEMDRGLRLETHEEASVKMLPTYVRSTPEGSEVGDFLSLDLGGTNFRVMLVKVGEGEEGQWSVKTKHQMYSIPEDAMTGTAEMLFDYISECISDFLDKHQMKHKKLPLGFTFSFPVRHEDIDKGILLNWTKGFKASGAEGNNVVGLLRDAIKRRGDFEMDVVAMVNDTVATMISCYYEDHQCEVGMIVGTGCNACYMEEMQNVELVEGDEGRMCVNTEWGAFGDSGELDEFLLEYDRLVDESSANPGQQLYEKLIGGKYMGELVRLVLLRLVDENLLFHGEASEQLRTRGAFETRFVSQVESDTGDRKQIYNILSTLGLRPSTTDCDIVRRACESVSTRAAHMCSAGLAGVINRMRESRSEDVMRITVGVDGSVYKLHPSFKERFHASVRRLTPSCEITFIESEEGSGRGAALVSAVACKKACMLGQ
# Experimental: Glucokinase Tandem Enzymatic Assay
# Enzymatic activity of human glucokinase (GK) was measured by incubating GK, ATP, and glucose for discrete time periods followed by quenching with EDTA (ethylenediamine tetra-acetic acid). Relative amounts of product glucose-6-phosphate (G6P) were measured by then running a detection assay using G6P dehydrogenase and measuring the conversion of ThioNAD (thio-nicotinamide adenine dinucleotide) to ThioNADH (thio-dihydronicotinamide adenine dinucleotide) at a wavelength of 405 nm. This ‘uncoupled’ enzymatic reaction is denoted as the GK ‘tandem’ assay. Activation of GK by compounds can be assessed using this assay. The GK tandem assay protocol described below was followed using a range of activator compound concentrations from 0 to 100 μM at 5 and 12 mM of glucose. Human full-length glucokinase (GK, 15 nM) was incubated with 5 or 12 mM glucose in a 384 well black microtiter plate with a clear bottom. To initiate the GK reaction, magnesium-ATP (3 mM final concentration) was added to GK in buffer (final buffer conditions of 25 mM HEPES buffer, pH 7.1, containing 1 mM dithiothreitol and 5% DMSO). The total reaction volume was 20 μL The reaction was allowed to proceed for ten minutes and was then quenched with 5 μL EDTA; 45 mM final). The components of the detection reaction, ThioNAD and G6PDH (glucose-6-phosphate dehydrogenase) (final concentrations of 650 μM and 3.33 Units, respectively), were then added together in a volume of 25 μL (to give a total volume of 50 μL). Absorbance measurements were made at 405 nm on a Spectramax Plus 384 absorbance plate reader (Molecular Devices). Absorbance was read, background glucose-6-phosphate levels were subtracted, after which activation was calculated as a percentage of control activity. Control activity was determined using GK in the presence of vehicle (DMSO), with background glucose-6-phosphate subtracted. Background glucose-6-phosphate was determined by pre-quenching GK with EDTA prior to reaction initiation with ATP.
# Expression and Purification of Human GK
# Full-length human hepatic GK (untagged) was expressed in BL21 STAR (DE3)pLysS cells (Invitrogen) at 25° C. as described by Mookhtiar et al. (1). The protein was purified essentially as described by Lange (2) with a slight modification. Briefly, cell pellets were lysed via three rounds of freezing and thawing, centrifuged at 15000 g for clarification, and precipitated with 40-65% (NH4)2SO4. The resulting pellet was resuspended in buffer, dialyzed, and applied directly to a Q-Sepharose (Sigma) column followed by elution with a linear 100-600 mM KCl gradient. GK containing fractions were pooled, dialyzed overnight vs. 25 mM Hepes pH 7.2/1 mM MgCl2/1 mM EDTA/0.1 M KCl/1 mM DTT, then dialyzed again with same buffer with 10% glycerol added.
# [2] = tested on: male DIO (diet-induced obese) C57BL/6J mice; experiment: Oral glucose tolerance test (OGTT) in DIO mice; type: in vivo; settings: 30 mg/kg dose, given orally 60 min before glucose 2 g/kg, ΔAUC 0-120 min
# Experimental: In Vivo Studies: Oral Glucose Tolerance Test (OGTT)
# Oral glucose tolerance tests were carried out on male DIO (diet-induced obese) C57BL/6J mice fed a high fat diet (60% kcal from fat) for 26 weeks prior to experimentation. Mice were fasted overnight before use for experiments. A test compound or vehicle (10% dimethyl acetamide +10% ethanol +10% Cremophore +70% water) was given orally 60 min before oral administration of a glucose solution at a dose of 2 g/kg body weight (oral glucose tolerance test; OGTT). Blood glucose levels were measured from tail-bled samples taken at different time points before and after administration of glucose (time course of 2 hours). A time curve of the blood glucose was generated and the change from baseline area-under-the curve (ΔAUC) from 0-120 min was calculated (the time glucose administration being time zero).
Emax [1] [%],EC50 [1] [nM],SMILES,reduction of glucose AUC levels in OGTT [2] [%]
163,–,CS(=O)(=O)c1ccc(Oc2cc(NC(=O)c3nccs3)cc(C(F)(F)F)c2)cc1 [Example 37],–
–,513,COC[C@H](C)Oc1cc(NC(=O)c2cc[nH]n2)cc(Oc2ccc(S(C)(=O)=O)cc2)c1 [Example 8],–
131,–,COC[C@H](C)Oc1cc(NC(=O)c2ncn[nH]2)cc(Oc2ccc(S(C)(=O)=O)cc2)c1 [Example 7],–
–,165,COC[C@H](C)Oc1cc(NC(=O)c2nc3ccccc3s2)cc(Oc2ccc(S(C)(=O)=O)cc2)c1 [Example 5],–

# Further lines, the molecule ahead of its results:
SMILES,Emax [1] [%],EC50 [1] [nM],reduction of glucose AUC levels in OGTT [2] [%]
COC[C@H](C)Oc1cc(NC(=O)c2ncc(C)s2)cc(Oc2ccc(S(C)(=O)=O)cc2)c1 [Example 18],–,67,–
COC[C@H](C)Oc1cc(NC(=O)c2c[nH]cn2)cc(Oc2ccc(S(C)(=O)=O)cc2)c1 [Example 6],–,191,66
Cc1cnc(C(=O)Nc2cc(Oc3ccc(S(C)(=O)=O)cc3)cc(O[C@@H](C)CO)c2)s1 [Example 22],–,77,–
CS(=O)(=O)c1ccc(Oc2cc(NC(=O)c3c[nH]cn3)cc(Oc3ccc(S(C)(=O)=O)cc3)c2)cc1 [Example 31],–,575,–
